The term IC50 denotes the concentration needed to halve the response being measured. A word on the inhibition: it is how much of the control response was suppressed. Broadly, the Kd is a measure of binding affinity in units of concentration.

Experiment [1] deals with HL60 cells. Kind of experiment: Growth inhibition (MTT assay) in HL60 cells. Particulars: for IC50: Homo sapiens, HL-60, MTT assay; for IC50 HL60: MTT assay. Format: cell-based, human. As to the method: (§1) These were performed using HL60 human promyelocytic leukemia cells or Daudi Burkitt lymphoma cells essentially as described previously (23). Briefly, cells were seeded into 96 well dishes (5000 cells/well and 10,000 cells/well for HL60 and Daudi cells, respectively). Growth medium consisted of RPMI medium supplemented with Penicillin/Streptomycin, glutamine and 10% fetal bovine serum. The indicated concentrations of each compound were then added and 10-point growth inhibition assays were performed 3-5 days later using the MTT assay. Each point was performed in quadruplicate.
(§2) Daudi Burkitt lymphoma and HL60 promyelocytic leukemia cells were maintained in RPMI medium supplemented with 10% fetal bovine serum.(23) For growth inhibition studies, 3×10^3 cells were seeded in 96 well plates in the presence of serial dilutions of each compound. A total of 10 dilutions, ranging from 0.1 to 50 μM were performed for each compound. Standard MTT assays (23) were used to quantify cell number 3-4 days later and compared to wells exposed to DMSO vehicle only.
(In general: Tetrazolium assays rely on reduction of a dye to a coloured formazan, in cell work by metabolically active cells.)

The subject of experiment [2] is Daudi cells. Kind of experiment: Growth inhibition (MTT assay) in Daudi cells. Particulars: for IC50: Homo sapiens, Daudi. Format: cell-based. The procedure:
as §1, §2

Experiment [3] addresses T1, Max-Max homodimers (Homo sapiens, UniProt P61244).
T1 construct: His6; made in house; host or cells: bacteria
Kind of experiment: EMSA of Max-Max homodimerization and DNA binding. The conditions noted are these: for IC50: 50% inhibition of Max-Max dimerization and DNA binding in EMSAs.

Experiment [4] addresses T2, c-Myc-Max heterodimers (Homo sapiens, UniProt P01106).
T2 construct: c-Myc bHLH-ZIP domain (residues 353-437); His6-TEV protease substrate tag; made in house; host or cells: bacteria (pET151 vector for Myc)
The experiment is described as follows: Electrophoretic mobility shift assay (EMSA) of c-Myc-Max dimerization and DNA binding. The conditions noted are these: for IC50: 50% inhibition of c-Myc-Max dimerization and DNA binding in EMSAs. As to the method:
The ability of a small-molecule to interfere with c-Myc-Max dimerization is conveniently assessed through the disruption of the c-Myc-Max/DNA ternary complex by an electrophoretic mobility shift assay (EMSA) using fluorescently-labelled DNA, and subsequently quantified by densitometry.(23) Accordingly, a 100-member library was screened for the ability to disrupt the c-Myc-Max dimer.
These were performed essentially as described previously (23). Briefly, Ni^+-agarose-purified His6-tagged c-Myc bHLH-ZIP domain (residues 353-437) was used for all binding assays as was the His6-tagged 151 residue isoform of Max, otherwise referred to as Max(S) (residues 2-151) (21). For each binding reaction, the proteins were allowed to heterodimerize at a concentration of 30 nM each in the presence of 20 nM of a 5′-HEX-tagged double-stranded 22-base pair oligonucleotide 5′-hexachlorofluoresceine-[…]-3′ (SEQ ID NO: 1) containing a consensus c-Myc binding site (CACGTG) and the indicated concentration of small molecule inhibitor. Control reactions contained the same oligonucleotide in the presence of 60 nM of the 160 residue isoform of Max referred to as Max(L) (21). All binding reactions were prepared in a buffer consisting of PBS (pH 7.3), 1 mmol/L EDTA, 0.1% NP40, 5% glycerol, 1 mmol/L DTT, and 0.4 mg/mL bovine serum albumin. Electrophoresis was performed on 8% polyacrylamide/bisacrylamide (80:1) gels in […] (23). Each reaction was run on at least three separate occasions.
EMSAs were performed essentially as described utilizing bacterially-expressed recombinant proteins purified nearly to homogeneity.(23) Experiments with Max homodimers used the His6-tagged 160 amino acid isoform of the protein, termed Max(L), which homodimerizes and binds DNA well. For studies with Myc-Max heterodimers, the His6-tagged 151 residue isoform of Max [Max(S)] was used, which binds DNA well as a heterodimer with Myc but poorly as a homodimer.(23) Recombinant Myc protein, expressed in the pET151 vector, consisted of the His6-TEV protease substrate-tagged 85 amino acid bHLH-ZIP domain. (23) Each protein was purified by Ni-agarose affinity chromatography as previously described. (23) The His6-TEV tag was removed from the Myc protein by TEV protease cleavage followed by re-purification using Ni-agarose affinity chromatography to remove the His6-TEV protease and the cleaved His6-TEV tag as previously described. Binding assays were performed with 30 nM of each protein and 30 nM of a 6-carboxy-2′,4,4′,5′,7,7′-hexachlorofluorescein (HEX)-tagged double-stranded oligonucleotide containing a consensus Myc binding site (IDT, Coralville, Iowa).(23)

Where [5] appears, read: 10-point serial dilution, quadruplicate, read-out: IC50 HL60.
Where [6] appears, read: 10-point serial dilution, quadruplicate.
Where [7] appears, read: 10-point serial dilution, quadruplicate, read-out: IC50 Daudi.
[8] abbreviates: Table 10, 100 μM small-molecule, EMSA, read-out: % Inhibition of c-Myc-Max Dimerization.
[9] abbreviates: Table 2, 100 μM compound, Myc-Max/DNA band intensity relative to control, read-out: Inhibition at 100 μM (%).
Where [10] appears, read: Table 11, 100 uM, EMSA, read-out: % Inhibition of c-Myc-Max Dimerization.

The structures appear in SMILES notation. Entries after “also recorded” stand apart in the source; their conditions may differ. Read-outs that look alike come from different tables or passages of the source.

T2 sequence (P01106 368-452, one chain of several): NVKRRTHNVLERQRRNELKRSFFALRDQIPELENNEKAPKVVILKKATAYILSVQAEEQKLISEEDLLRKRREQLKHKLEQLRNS
T1 sequence (P61244 whole entry): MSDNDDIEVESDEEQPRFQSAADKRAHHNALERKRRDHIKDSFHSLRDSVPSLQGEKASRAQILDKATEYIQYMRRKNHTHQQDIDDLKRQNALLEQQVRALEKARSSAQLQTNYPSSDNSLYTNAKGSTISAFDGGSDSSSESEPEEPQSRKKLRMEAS

On to `Cc1ccc(-c2cc(C(=O)O)ccc2Nc2ccc([N+](=O)[O-])c3nonc23)cc1` [Compound 3jc53-6, 4′-Methyl-6-((7-nitrobenzo[c][1,2,5]oxadiazol-4-yl)amino)-[1,1′-biphenyl]-3-carboxylic acid], for which the 50% inhibitory concentration (IC50) in experiment [1] (setting [5]), in experiment [2] (setting [7]), in experiment [3] and in experiment [4] was above 100 µM each time. For the same molecule, the “IC50 HL60” value in experiment [1] (setting [6]) was “inactive”. The “IC50 Daudi” value in experiment [2] (setting [6]) is “inactive”. The “inhibition of c-Myc-Max dimerization in vitro (in words)” value in experiment [4] (EMSA) is “inactive in vitro”. The inhibition at 100 µM in experiment [4] (setting [8]) was found to be 16%.

In the case of `COC(=O)c1ccc(Nc2ccc([N+](=O)[O-])c3nonc23)c(-c2ccc(C(F)(F)F)cc2)c1` [Compound 4jc23-4, Methyl 6-((7-nitrobenzo[c][1,2,5]oxadiazol-4-yl)amino)-4′-(trifluoromethyl)-[1,1′-biphenyl]-3-carboxylate], the IC50 in experiment [1] (setting [5]) was 0.877 ± 0.07 µM; in experiment [1] (read-out: IC50 against HL60 cells), 0.877 µM; in experiment [2] (setting [7]) it was 0.5 ± 0.025 µM; in experiment [2] (read-out: IC50 against Daudi cells), 0.5 µM; in experiment [3], above 100 µM; in experiment [4], 75 µM. Also, in experiment [4] (setting [8]), the inhibition at 100 µM came to 74%.

In the case of `O=C(O)COCC(=O)Nc1ccc(Nc2ccccc2-c2ccccc2)c2nonc12` [Compound 5e, 2-(2-((7-([1,1′-Biphenyl]-2-ylamino)benzo[c][1,2,5]oxadiazol-4-yl)amino)-2-oxoethoxy)acetic acid], the inhibition at 100 µM in experiment [4] (setting [9]) came out at 33%.

Regarding `O=[N+]([O-])c1ccc(Nc2ccccc2-c2ccccc2)cc1` [Compound 7, N-(4-Nitrophenyl)-[1,1′-biphenyl]-2-amine], in experiment [4] (setting [9]), the inhibition at 100 µM came to 0%.

Take `O=C(O)c1ccc(Nc2ccc([N+](=O)[O-])c3nonc23)cc1` [JY-3-094, 4-((7-Nitrobenzo[c][1,2,5]oxadiazol-4-yl)amino)benzoic acid]: the half-inhibitory concentration (IC50) in experiment [1] (setting [5]) is above 100 µM; in experiment [2] (setting [7]) it was above 100 µM; in experiment [3], above 100 µM; in experiment [4], 33 µM. Moreover, the “IC50 HL60” value in experiment [1] (setting [6]) is “inactive”. Besides, in experiment [2] (setting [6]), the “IC50 Daudi” value is “inactive”. Further, the “activity against Max-Max homodimers” value in experiment [3] (EMSA, at 100 μM) is on record as “no effect; also recorded: no activity”. In addition, in experiment [4] (EMSA), the “c-Myc-Max inhibitory potency relative to 10074-G5” value was “around five-fold as potent”. In addition, in experiment [4] (EMSA), the “inhibition of c-Myc-Max dimerization in vitro (in words)” value is given as “dose-dependent inhibition”. The “selectivity for Myc-Max heterodimers over Max-Max homodimers” value in experiment [4] (EMSA) is “greater than three-fold selectivity; also recorded: at least three-fold selective”. In experiment [4] (EMSA dose-response (FIG. 4), read-out: Kd value, inhibition of Myc-Max dimerization), the Kd came to 33 µM. In addition, the inhibition at 100 µM in experiment [4] (read-out: % Inhibition of c-Myc-Max Dimerization, Table 10, 100 μM small-molecule, EMSA) was 94%; in experiment [4] (read-out: % Inhibition of c-Myc-Max Dimerization, Table 11, 100 uM, EMSA) it was 94%; in experiment [4] (read-out: Inhibition at 100 μM (%), Table 1, 100 μM compound, Myc-Max/DNA band intensity relative to control), 93%.

`O=C(Nc1ccccc1)c1ccc(Nc2ccc([N+](=O)[O-])c3nonc23)cc1` [JY-5-195, 4-((7-Nitrobenzo[c][1,2,5]oxadiazol-4-yl)amino)-N-phenylbenzamide]: the IC50 is 3.1 ± 0.3 µM in experiment [1] (setting [5]), 5.1 ± 0.56 µM in experiment [2] (setting [7]), above 100 µM in experiment [3] and 57.9 µM in experiment [4]. Also, the “IC50 HL60” value in experiment [1] (setting [6]) is “single-digit micromolar”. Further, the “IC50 Daudi” value in experiment [2] (setting [6]) is given as “single-digit micromolar”.

As to `O=C(Nc1ccccc1C(F)(F)F)c1ccc(Nc2ccc([N+](=O)[O-])c3nonc23)cc1` [JY-5-261, 4-((7-Nitrobenzo[c][1,2,5]oxadiazol-4-yl)amino)-N-(2-(trifluoromethyl)phenyl)benzamide], the half-inhibitory concentration (IC50) in experiment [1] (setting [5]) is 5.3 ± 0.3 µM; in experiment [2] (setting [7]), 3.9 ± 0.4 µM; in experiment [3], above 100 µM; in experiment [4], 71 µM. Moreover, in experiment [1] (setting [6]), the “IC50 HL60” value is “single-digit micromolar”. In experiment [2] (setting [6]), the “IC50 Daudi” value is “single-digit micromolar”.

For `O=[N+]([O-])c1ccc(Nc2ccccc2-c2ccccc2)cc1` [SF-3-068], the inhibition at 100 µM in experiment [4] (setting [10]) was 0%.

As for `O=C(O)c1cc(Nc2ccccc2-c2ccccc2)ccc1[N+](=O)[O-]` [SF-3-070], the inhibition at 100 µM in experiment [4] (setting [10]) came to 5%.

`N#Cc1ccc(Nc2ccccc2-c2ccccc2)cc1` [SF-3-078]: in experiment [4] (setting [10]), the inhibition at 100 µM came out at 2%.

`N#Cc1cc([N+](=O)[O-])ccc1Nc1ccccc1-c1ccccc1` [SF-3-079]: the inhibition at 100 µM in experiment [4] (setting [10]) came to 0%.

In the case of `N#Cc1cc(Nc2ccccc2-c2ccccc2)ccc1[N+](=O)[O-]` [SF-3-080], in experiment [4] (setting [10]), the inhibition at 100 µM was 0%.

Take `O=[N+]([O-])c1ccc(Nc2ccccc2-c2ccccc2)nc1` [SF-3-081]: the inhibition at 100 µM in experiment [4] (setting [10]) worked out at 0%.

For `N#Cc1ccc(Nc2ccccc2-c2ccccc2)c(Cl)c1` [SF-3-083], the inhibition at 100 µM in experiment [4] (setting [10]) stood at 9%.

Consider `NC(=O)c1ccc(Nc2ccccc2-c2ccccc2)cc1` [SF-3-093A], for which the inhibition at 100 µM in experiment [4] (setting [10]) is 0%.

With `O=C(O)c1ccc(Nc2ccccc2-c2ccccc2)cc1` [SF-3-093B], the inhibition at 100 µM in experiment [4] (setting [10]) came out at 4%.

For `Nc1ccc(Nc2ccccc2-c2ccccc2)cc1` [SF-3-098], in experiment [4] (setting [10]), the inhibition at 100 µM worked out at 0%.

`O=[N+]([O-])c1ccc(Nc2ccccc2-c2ccccc2)cc1O` [SF-3-101]: the inhibition at 100 µM in experiment [4] (setting [10]) worked out at 0%.

Take `NC(=O)c1cc([N+](=O)[O-])ccc1Nc1ccccc1-c1ccccc1` [SF-3-103A]: the inhibition at 100 µM in experiment [4] (setting [10]) came out at 0%.

Consider `O=C(O)c1cc([N+](=O)[O-])ccc1Nc1ccccc1-c1ccccc1` [SF-3-103B, 2-([1,1′-biphenyl]-2-ylamino)-5-nitrobenzoic acid], for which the IC50 in experiment [1] (setting [5]) was above 100 µM; in experiment [2] (setting [7]), above 100 µM; in experiment [3], above 100 µM; in experiment [4] it was 84 µM. Besides, the “IC50 HL60” value in experiment [1] (setting [6]) was “inactive”. For the same molecule, the “IC50 Daudi” value in experiment [2] (setting [6]) is “inactive”. The “c-Myc-Max inhibitory potency relative to 10074-G5” value in experiment [4] (EMSA) is “nearly two-fold more potent”. Further, the inhibition at 100 µM in experiment [4] (setting [10]) was at least 33%.

For the molecule `NC(=O)c1cc(Nc2ccccc2-c2ccccc2)ccc1[N+](=O)[O-]` [SF-3-104A], the inhibition at 100 µM in experiment [4] (setting [10]) came out at 0%.

Turning to `COC(=O)c1ccc(Nc2ccccc2-c2ccccc2)cc1` [SF-3-105], in experiment [4] (setting [10]), the inhibition at 100 µM was 0%.

With `COC(=O)c1cc([N+](=O)[O-])ccc1Nc1ccccc1-c1ccccc1` [SF-3-106], in experiment [4] (setting [10]), the inhibition at 100 µM was found to be 0%.

For the molecule `COC(=O)c1cc(Nc2ccccc2-c2ccccc2)ccc1[N+](=O)[O-]` [SF-3-107], the inhibition at 100 µM in experiment [4] (setting [10]) amounted to 0%.
